The text below walks through data of BindingDB's records for doi:10.1021/jm00108a040 (Eli Lilly, 1991).

The target of assay [1] is Gastrin/cholecystokinin type B receptor (Cavia porcellus). In words: Inhibition of [125I]-labeled CCK-8 sulfate binding to Cholecystokinin type B receptor in guinea pig brain membranes.
Assay [2] has the same target. The assay is described as above. This is another data set of the same source.

By IC50 is commonly meant the concentration at which inhibition is half-maximal. Consider `CCc1cccc(-n2c(CCc3c[nH]c4ccc(Br)cc34)nc3ccccc3c2=O)c1`, for which the IC50 in assay [1] and in assay [2] was 330 nM throughout.
